We go through 1 compound from US3962445A, “Anti-allergenic carbostyril derivatives” (Beecham Group Limited, priority 1973, dated 1976).

The test concerns PCA response. In words: rat Passive Cutaneous Anaphylaxis Test (PCA test). The following applies: subcutaneous, as sodium salt. The test is classed as in vivo, rat (male Wistar). Here is the method:
Some of the 4-hydroxycarbostyrils prepared in the preceding examples were tested in the rat Passive Cutaneous Anaphylaxis Test (PCA test), described below. They were administered as their sodium salts either in pH 7.2 phosphate buffer (for soluble salts) or as a suspension in 1% methyl cellulose (for insoluble salts).
Male Wistar rats of 250-300g, were injected intraperitoneally with 0.5 ml. of Bordatella pertussis vaccine (containing 4 × 10^10 dead organism per ml) and subcutaneously with 0.5 ml. of an emulsion of 100 mg. of ovalbumin in 2 ml of saline and 3 ml. of incomplete Freunds' adjuvant. Rats were bled by cardiac puncture on day 18, the blood was pooled and separated and serum stored at -20° and thawed only once before use.
0.1 ml of each of six twofold serial dilutions of the serum in 0.9% saline were injected intradermally into separate sites on the shaved dorsal surface of 250-350 g. Male Wistar rats. 72 hours later the animals were challenged by i v injection of 0.3 ml. of 1% ovalbumin mixed with 0.1 ml of a 5% solution of pontamine sky blue dye both in isotonic saline buffered with pH. 7.2 Sorenson buffer (P P S ) The rats were killed after 20 minutes and the diameter of the blue wheals at the antibody injection sites were measured. The starting dilution of the serum was adjusted so that there was no response after challenge, at the site of injection of the highest dilution and a maximum response at the two or three lowest dilutions. Typically, six twofold serial dilutions of the serum 1/4 to […] were used.
Amounts of the compounds were administered to rats by subcutaneous injection, into the nucal region, of a solution of the compound in P.B.S. or as a suspension in 1% methyl cellulose, each amount to a test group of six animals at a specified time prior to intravenous challenge with ovalbumin.
% Inhibition of P.C.A = 100 (1 - a/b)
For those compounds having insoluble sodium salts, the salts were isolated by reaction of the free nitro compound with 2.5N sodium hydroxide and the filtered sodium salt washed free of alkali with water. The dried salts were then administered as a suspension in 1% methyl cellulose.

The mark [1] stands for this setting: 0 h, time 0 mins. prior to i.v. ovalbumin challenge.
Where [2] appears, read: 1 h, time 60 mins. prior to i.v. ovalbumin challenge.

For the compound `O=c1[nH]c2ccc(Br)cc2c(O)c1[N+](=O)[O-]` [Example 8, 6-Bromo-4-hydroxy-3-nitrocarbostyril], under setting [1], the inhibition (commonly the change of the read-out against control, counted positive when it falls) at 25 mg/kg came to 5% and the inhibition at 100 mg/kg is -11%. For the same compound, under setting [2], the inhibition at 25 mg/kg stood at 25% and the inhibition at 100 mg/kg was determined as 19%.
